Source: publication PMC9099842, “Isolation of Potato Endophytes and Screening of Chaetomium globosum Antimicrobial Genes” (International Journal of Molecular Sciences, 2022)
Ends that are not written are not given here.

How the values were obtained:
C. fangii [1] = format: cell-based, Clavibacter fangii
C. michiganensis [2] = format: cell-based, Clavibacter michiganensis
porcine erythrocytes = details: 5× MIC, 37 °C, 1 h, absorbance 385 nm, 0.1% Triton X-100 = 100%, PBS = 0%
[3] = tested on: C. michiganensis, C. fangii, X. oryzae pv. oryzae and X. oryzae pv. oryzicola; format: physicochemical; details: read-out agar diffusion test; for antibacterial activity after heat treatment (thermal stability), 4–75 °C: heated 30 min at 25, 50, 75 °C (4 °C control); for antibacterial activity after heat treatment (thermal stability), 100 °C: heated at 100 °C for 30 min
X. oryzae pv. oryzicola [4] = format: cell-based, Xanthomonas oryzae pv. oryzicola; details: purified peptide, 96-well plate, LB, 28 °C, 12 h
[5] = tested on: Gram-negative bacteria and Gram-positive bacteria; assay: MIC assay, range over all tested strains; format: cell-based; details: purified peptide, 96-well plate, 28 °C, 12 h; range over Gram-negative and Gram-positive strains of Table 4
Procedure: (§1) The indicator bacteria were inoculated in LB liquid medium (OD600 ≈ 0.8–1.0) and then diluted with the indicator bacteria (OD600 ≈ 0.02–0.05). After that, we added 40 μL of diluted indicator bacteria solution to 96-well titer plates. The AMPs were diluted through a series of concentration gradients, and then an equal volume of peptides was added to the above 96-well plate and incubated at 28 °C for 12 h. […] To determine the time-kill assay, the purified antimicrobial peptide concentration was adjusted to 2× MIC concentration, and then added to a 96-well plate in equal volume with the indicator bacteria, with at least 3 wells for each concentration. After mixing the liquid evenly, it was incubated at 28 °C for 2 h, 4 h, 6 h, 8 h, 10 h, 12 h, and 24 h, and then the OD value was obtained at 600 nm.

C. fangii [6] = assay: Minimum inhibitory concentration (MIC) assay; format: cell-based, Clavibacter fangii; details: purified peptide, 96-well plate, LB, 28 °C, 12 h
Procedure: as §1

X. oryzae pv. oryzicola [7] = format: cell-based, Xanthomonas oryzae pv. oryzicola; details: 20 μL extracellular peptides on filter paper, 28 °C, 5-7 h, mean ± SD, three independent experiments
F. graminearum = format: cell-based, Fusarium graminearum; details: 200 μL extracellular peptide per well, 28 °C, 2–4 days, vs PBS
C. michiganensis [8] = assay: Minimum inhibitory concentration (MIC) assay; format: cell-based, Clavibacter michiganensis; details: purified peptide, 96-well plate, LB, 28 °C, 12 h
Procedure: as §1

[9] = tested on: four tested strains (C. fangii, X. oryzae pv. oryzicola, X. oryzae pv. oryzae, C. michiganensis); format: cell-based; details: peptides at their MICs, 28 °C, OD 600 nm; after 12 h of treatment
X. oryzae pv. oryzae [10] = format: cell-based, Xanthomonas oryzae pv. oryzae; details: purified peptide, 96-well plate, LB, 28 °C, 12 h
R. solani = format: cell-based, Rhizoctonia solani
B. cinerea = format: cell-based, Botrytis cinerea
[11] = tested on: X. campestris pv. Holcicola; assay: Minimum inhibitory concentration (MIC) assay; format: cell-based, Xanthomonas campestris pv. Holcicola; details: purified peptide, 96-well plate, LB, 28 °C, 12 h
Procedure: as §1

[12] = tested on: Xanthomonas campestris pv. Holcicola; format: cell-based
X. oryzae pv. oryzae [13] = format: cell-based, Xanthomonas oryzae pv. oryzae; details: 20 μL extracellular peptides on filter paper, 28 °C, 5-7 h, mean ± SD, three independent experiments
X. oryzae pv. oryzae [14] = format: cell-based, Xanthomonas oryzae pv. oryzae; details: X. oryzae pv. oryzae co-incubated with peptide 2 h at 28 °C; MIC concentration
C. michiganensis [15] = assay: Pathogenicity assay (control effect on tomato plants); format: in vivo, Clavibacter michiganensis; details: stem acupuncture inoculation of C. michiganensis mixed with equal volume of peptide at 2× MIC, greenhouse, at 7 d; for Disease Index: letters = differences at p < 0.05; for Control Efficacy (%): relative to PBS buffer group
Procedure: C. michiganensis was cultured to the logarithmic growth phase, then the pathogenic bacteria were mixed with an equal volume of antimicrobial peptides at 2× MIC, and finally tomato plants were inoculated using the stem acupuncture method. The positive control was mixed with an equal volume of polymyxin B and pathogenic bacteria, and the negative control was mixed with an equal volume of PBS buffer and pathogenic bacteria. After inoculation, the tomato plants were cultured under greenhouse conditions, and the disease incidence was observed and recorded. The equation of disease grading criteria, incidence rate, and disease index are found in Supplementary Method S5. […]
Peptide purification procedure
B. subtilis was grown in 300 mL liquid LB medium containing kanamycin (10 mg/L) and incubated at 180 r/min, 37 °C for 72 h. The supernatant was collected by centrifugation at […]
10,000× g for 25 min at 4°C. […]
Pathogenecity assay equation
C. michiganensis disease grading criteria are as follows, grade 0: no wilting or stem necrosis of leaves (or cotyledons); grade 1: mild yellowing or wilting of leaves (or cotyledons); grade 2: moderate wilting or wilting of leaves (or cotyledons) and mild necrosis of stem; Grade 3: severe wilting of leaves (or cotyledons) or severe necrosis of stem; Grade 4: plant death. The formulas for incidence rate, disease index and control efficacy are as follows: Incidence rate

C. michiganensis [16] = format: cell-based, Clavibacter michiganensis; remark: listed apart in the source
[17] = tested on: Gram-positive and Gram-negative bacteria; format: physicochemical

Substance | antimicrobial diameter (bacteriostatic spectrum) (C. fangii [1]) | antimicrobial diameter (bacteriostatic spectrum) (C. michiganensis [2]) | antibacterial activity after heat treatment (thermal stability), 4–75 °C [3] | antibacterial activity after heat treatment (thermal stability), 100 °C [3] | antimicrobial diameter (bacteriostatic spectrum) (X. oryzae pv. oryzicola [7]) | inhibition of mycelia growth (in words) (F. graminearum) | bacterial growth in time-kill curve [9] | inhibition of mycelia growth (in words) (R. solani) | inhibition of mycelia growth (in words) (B. cinerea) | inhibition of bacterial growth (in words) [12] | antimicrobial diameter (bacteriostatic spectrum) (X. oryzae pv. oryzae [13]) | cell membrane damage by SEM (X. oryzae pv. oryzae [14]) | Incidence (%) (C. michiganensis [15]) | Disease Index (C. michiganensis [15]) | Control Efficacy (%) (C. michiganensis [15]) | cell membrane damage by SEM (C. michiganensis [16]) | antibacterial activity after UV treatment (UV stability) [17] | other results
LAVHHLHSIRGRHHSCTIAQTQANHRHNSYQPNNSSCLAKETDLPTTRSTPATTSSTAPARKSPPASPAPTRQRLCPSPPRGPVSSRHPRRRGQARGRTRAAGVRRTKGYGGKCV [CgR2150, 115-residue antimicrobial peptide from C. globosum cDNA library, expressed and secreted by B. subtilis SCK6] | 1.21 ± 0.037 cm | 1.19 ± 0.033 cm | obvious antibacterial activity | lost their activity | 1.29 ± 0.034 cm | significantly inhibit the mycelia growth | hardly grew | significantly inhibit the mycelia growth | significantly inhibit the mycelia growth | significantly inhibit the growth | 1.39 ± 0.036 cm | significantly shrunken and morphologically abnormal | 13.33 c % | 5.83 | 92.56 b % | severely damaged, with obvious gaps and ruptures | stable bacteriostatic activity | hemolytic activity (porcine erythrocytes): 0.32%; MIC (X. oryzae pv. oryzicola [4]): 10 µg/mL; MIC, range over the five tested bacteria [5]: 10 to 25 µg/mL; MIC (C. fangii [6]): 15 µg/mL; MIC (C. michiganensis [8]): 18 µg/mL; MIC (X. oryzae pv. oryzae [10]): 10 µg/mL; MIC [11]: 25 µg/mL
LAVPNFEPPTRTTCPAPTSPGNPCGPPPPASQTRRPPFHPTSPLRR (cysteines drawn unpaired) [CgR3101] | 1.15 ± 0.029 cm | 1.04 ± 0.033 cm | obvious antibacterial activity | lost their activity | 1.26 ± 0.024 cm | significantly inhibit the mycelia growth | hardly grew | significantly inhibit the mycelia growth | significantly inhibit the mycelia growth | significantly inhibit the growth | 1.19 ± 0.036 cm | significantly shrunken and morphologically abnormal | 16.67 b % | 7.50 b | 90.43 c % | severely damaged, with obvious gaps and ruptures | stable bacteriostatic activity | 
Polymyxin B [reference compound] |  |  |  |  |  |  |  |  |  |  |  |  | 10.00 d % | 3.33 c | 95.75 a % |  |  | 
